Measured values published in PubChem BioAssay AID1259407 (Chemical Carcinogenesis Research Information System (CCRIS), 2018).
Active and inactive are the calls of the source. No rule for the calls is given here.

Tested on: CCRIS mutagenicity, Ames/micronucleus/aberration tests
Experiment: CCRIS mutagenicity studies

Measured: mutagenic call

O=C(O)c1ccccc1C(=O)O
inactive: End Point: In vitro chromosomal aberrations, Test System: Chinese hamster ovary (CHO) cells, Metabolic Activation: None inactive; negative | End Point: In vitro chromosomal aberrations, Test System: Chinese hamster ovary (CHO) cells, Metabolic Activation: Rat, liver, S-9, Aroclor 1254, 10% inactive; negative | End Point: In vivo micronucleus, Test System: Bone marrow polychromatic erythrocytes, Species: Mouse, Strain/Sex: ICR/Male, Route: Intraperitoneal inactive; negative | Test System: AMES SALMONELLA TYPHIMURIUM, Strain/Indicator: TA97, Metabolic Activation: HAMSTER, LIVER, S-9, AROCLOR 1254, 10%, Method: PREINCUBATION inactive; negative | Test System: AMES SALMONELLA TYPHIMURIUM, Strain/Indicator: TA97, Metabolic Activation: HAMSTER, LIVER, S-9, AROCLOR 1254, 30%, Method: PREINCUBATION inactive; negative | Test System: AMES SALMONELLA TYPHIMURIUM, Strain/Indicator: TA97, Metabolic Activation: NONE, Method: PREINCUBATION inactive; negative | Test System: AMES SALMONELLA TYPHIMURIUM, Strain/Indicator: TA97, Metabolic Activation: RAT, LIVER, S-9, AROCLOR 1254, 10%, Method: PREINCUBATION inactive; negative | Test System: AMES SALMONELLA TYPHIMURIUM, Strain/Indicator: TA97, Metabolic Activation: RAT, LIVER, S-9, AROCLOR 1254, 30%, Method: PREINCUBATION inactive; negative | Test System: AMES SALMONELLA TYPHIMURIUM, Strain/Indicator: TA97, Metabolic Activation: RAT, LIVER, S-9, PHENOBARBITAL AND 5,6-BENZOFLAVONE, Method: PREINCUBATION inactive; negative | Test System: AMES SALMONELLA TYPHIMURIUM, Strain/Indicator: TA98, Metabolic Activation: HAMSTER, LIVER, S-9, AROCLOR 1254, 10%, Method: PREINCUBATION inactive; negative | Test System: AMES SALMONELLA TYPHIMURIUM, Strain/Indicator: TA98, Metabolic Activation: HAMSTER, LIVER, S-9, AROCLOR 1254,(30%, Method: PREINCUBATION inactive; negative | Test System: AMES SALMONELLA TYPHIMURIUM, Strain/Indicator: TA98, Metabolic Activation: NONE, Method: PREINCUBATION inactive; negative | Test System: AMES SALMONELLA TYPHIMURIUM, Strain/Indicator: TA98, Metabolic Activation: RAT, LIVER, S-9, AROCLOR 1254, 10%, Method: PREINCUBATION inactive; negative | Test System: AMES SALMONELLA TYPHIMURIUM, Strain/Indicator: TA98, Metabolic Activation: RAT, LIVER, S-9, AROCLOR 1254, 30%, Method: PREINCUBATION inactive; negative | Test System: AMES SALMONELLA TYPHIMURIUM, Strain/Indicator: TA98, Metabolic Activation: RAT, LIVER, S-9, PHENOBARBITAL AND 5,6-BENZOFLAVONE, Method: PREINCUBATION inactive; negative | Test System: AMES SALMONELLA TYPHIMURIUM, Strain/Indicator: TA100, Metabolic Activation: HAMSTER, LIVER, S-9, AROCLOR 1254, 10%, Method: PREINCUBATION inactive; negative | Test System: AMES SALMONELLA TYPHIMURIUM, Strain/Indicator: TA100, Metabolic Activation: HAMSTER, LIVER, S-9, AROCLOR 1254, 30%, Method: PREINCUBATION inactive; negative | Test System: AMES SALMONELLA TYPHIMURIUM, Strain/Indicator: TA100, Metabolic Activation: NONE, Method: PREINCUBATION inactive; negative | Test System: AMES SALMONELLA TYPHIMURIUM, Strain/Indicator: TA100, Metabolic Activation: RAT, LIVER, S-9, AROCLOR 1254, 10%, Method: PREINCUBATION inactive; negative | Test System: AMES SALMONELLA TYPHIMURIUM, Strain/Indicator: TA100, Metabolic Activation: RAT, LIVER, S-9, AROCLOR 1254, 30%, Method: PREINCUBATION inactive; negative | Test System: AMES SALMONELLA TYPHIMURIUM, Strain/Indicator: TA100, Metabolic Activation: RAT, LIVER, S-9, PHENOBARBITAL AND 5,6-BENZOFLAVONE, Method: PREINCUBATION inactive; negative | Test System: AMES SALMONELLA TYPHIMURIUM, Strain/Indicator: TA102, Metabolic Activation: NONE, Method: PREINCUBATION inactive; negative | Test System: AMES SALMONELLA TYPHIMURIUM, Strain/Indicator: TA102, Metabolic Activation: RAT, LIVER, S-9, PHENOBARBITAL AND 5,6-BENZOFLAVONE, Method: PREINCUBATION inactive; negative | Test System: AMES SALMONELLA TYPHIMURIUM, Strain/Indicator: TA104, Metabolic Activation: NONE, Method: PREINCUBATION inactive; negative | Test System: AMES SALMONELLA TYPHIMURIUM, Strain/Indicator: TA104, Metabolic Activation: RAT, LIVER, S-9, PHENOBARBITAL AND 5,6-BENZOFLAVONE, Method: PREINCUBATION inactive; negative | Test System: AMES SALMONELLA TYPHIMURIUM, Strain/Indicator: TA1535, Metabolic Activation: HAMSTER, LIVER, S-9, AROCLOR 1254, 10%, Method: PREINCUBATION inactive; negative | Test System: AMES SALMONELLA TYPHIMURIUM, Strain/Indicator: TA1535, Metabolic Activation: HAMSTER, LIVER, S-9, AROCLOR 1254, 30%, Method: PREINCUBATION inactive; negative | Test System: AMES SALMONELLA TYPHIMURIUM, Strain/Indicator: TA1535, Metabolic Activation: NONE, Method: PREINCUBATION inactive; negative | Test System: AMES SALMONELLA TYPHIMURIUM, Strain/Indicator: TA1535, Metabolic Activation: RAT, LIVER, S-9, AROCLOR 1254 (10%), Method: PREINCUBATION inactive; negative | Test System: AMES SALMONELLA TYPHIMURIUM, Strain/Indicator: TA1535, Metabolic Activation: RAT, LIVER, S-9, AROCLOR 1254, 30%, Method: PREINCUBATION inactive; negative | Test System: Ames Salmonella typhimurium, Strain/Indicator: TA98, Metabolic Activation: None, Method: Preincubation inactive; negative | Test System: Ames Salmonella typhimurium, Strain/Indicator: TA98, Metabolic Activation: Rat, Liver, S-9, Aroclor 1254, Method: Preincubation inactive; negative | Test System: Ames Salmonella typhimurium, Strain/Indicator: TA100, Metabolic Activation: None, Method: Preincubation inactive; negative | Test System: Ames Salmonella typhimurium, Strain/Indicator: TA100, Metabolic Activation: Rat, liver, S-9, Aroclor 1254, Method: Preincubation inactive; negative | Test System: Ames Salmonella typhimurium, Strain/Indicator: TA102, Metabolic Activation: None, Method: Preincubation inactive; negative | Test System: Ames Salmonella typhimurium, Strain/Indicator: TA102, Metabolic Activation: Rat, liver, S-9, Aroclor 1254, Method: Preincubation inactive; negative | Test System: Ames Salmonella typhimurium, Strain/Indicator: TA1535, Metabolic Activation: None, Method: Preincubation inactive; negative | Test System: Ames Salmonella typhimurium, Strain/Indicator: TA1535, Metabolic Activation: Rat, liver, S-9, Aroclor 1254, Method: Preincubation inactive; negative | Test System: Ames Salmonella typhimurium, Strain/Indicator: TA1537, Metabolic Activation: None, Method: Preincubation inactive; negative | Test System: Ames Salmonella typhimurium, Strain/Indicator: TA1537, Metabolic Activation: Rat, liver, S-9, Aroclor 1254, Method: Preincubation inactive; negative
